According to patent US20200017495A1, “NOVEL HETEROCYCLIC COMPOUNDS AND THEIR USE IN PREVENTING OR TREATING BACTERIAL INFECTIONS” (priority 2017, published 2020):
Read-outs that look alike come from different tables or passages of the source.

What was measured:
Test in all cases: MIC of compounds alone and combined with antibacterials, broth microdilution (CLSI)
Assay type in all cases: cell-based
[1] = test system: Salmonella typhimurium (STY) isolates
Protocol: (§1) Method 2: MIC of Compounds Alone and Combined with Antibacterials Against Bacterial Isolates
(§2) Compounds of the present invention were assessed against genotyped bacterial strains (Table 3, 4) alone or in combination with an antibacterial (Table 2). […]. Briefly, compounds alone according to the invention were prepared in DMSO and spotted (2 μL each) on sterile polystyrene plates (Corning, 3788). Combinations of compounds and antibiotics dilutions were prepared in DMSO and spotted (1 μL each) on sterile polystyrene plates (Corning, 3788). Log phase bacterial suspensions were adjusted to a final density of 5.10^5 CFU/mL in cation-adjusted Mueller-Hinton broth (ca-MHB; Becton-Dickinson and Company) and added to each well (98 μL). Microplates were incubated for 16-20 h at 35° C. in ambient air. The MIC of the compounds was defined as the lowest concentration of said compounds that prevented bacterial growth as read by visual inspection. The MIC of ATB at each compound concentration was defined as the lowest concentration of ATB that prevented bacterial growth as read by visual inspection.

[2] = test system: Providencia stuartii (PST) isolates
Protocol: as §1, §2

[3] = test system: Providencia rettgeri (PRE) isolates
How it was run: (§3)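 Broth microdilution in cation-adjusted Mueller-Hinton broth, inoculum 5.10^5 CFU/mL, 16-20 h at 35° C in ambient air, on genotyped isolates. Compound MIC, alone or with an antibacterial, taken visually as lowest concentration preventing growth; antibacterial MIC determined at each compound concentration.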

[4] = test system: Klebsiella oxytoca (KOX) isolates
How it was run: as §3

[5] = test system: Enterobacter cloacae (ECL) isolates
How it was run: as §3

[6] = test system: Serratia marcescens (SMA) isolates
How it was run: as §3

In the case of `CO/N=C(\C(=O)N[C@@H]1C(=O)N2C(C(=O)O)=C(COC(N)=O)CS[C@H]12)c1ccco1` [FUR, Cefuroxime], the MIC ([1]; strain STY S3371, genotype OXA-1) was 32 µg/mL, the MIC ([2]; strain PST UFR94, genotype CTX-M-14) was greater than 256 µg/mL and the MIC ([2]; strain PST UFR95, genotype TEM-24) was 128 µg/mL. It also gave an MIC ([2]; strain PST UFR235, genotype VEB-1) of 256 µg/mL, an MIC ([3]; strain PRE UFR99, genotype OXA-1, OXA-181) greater than 256 µg/mL and an MIC ([3]; strain PRE UFR236, genotype TEM-1, OXA-48) of 64 µg/mL. It also gave an MIC ([4]; strain KOX UFR21, genotype TEM-1, CTX-M-15, OXA-48) greater than 256 µg/mL, an MIC ([4]; strain KOX UFR173, genotype OXY2-2) greater than 256 µg/mL and an MIC ([4]; strain KOX UFR223, genotype SHV-11, OXA-48) of 8 µg/mL. For the same compound, the MIC ([4]; strain KOX UFR224, genotype CTX-M-15, OXA-48) was greater than 256 µg/mL, the MIC ([5]; strain ECL 2185D, genotype OXA-163) was greater than 256 µg/mL and the MIC ([5]; strain ECL 190310, genotype AmpC) was greater than 256 µg/mL. The MIC ([5]; strain ECL 190408, genotype TEM-1, CTX-M-15, OXA-1) was greater than 256 µg/mL, the MIC ([5]; strain ECL 200138, genotype AmpC) was greater than 256 µg/mL and the MIC ([5]; strain ECL 200322, genotype TEM-1, CTX-M-15, OXA-1) was greater than 256 µg/mL. The MIC ([5]; strain ECL 260033, genotype AmpC) was greater than 256 µg/mL, the MIC ([5]; strain ECL 260253, genotype TEM-1, KPC-3) was greater than 256 µg/mL and the MIC ([5]; strain ECL 260323, genotype AmpC) was greater than 256 µg/mL. The MIC ([5]; strain ECL 260508, genotype TEM-1, CTX-M-15) was greater than 256 µg/mL, the MIC ([5]; strain ECL NEM146383, genotype AmpC) was greater than 256 µg/mL and the MIC ([5]; strain ECL P99, genotype AmpC) was greater than 512 µg/mL. For the same compound, the MIC ([5]; strain ECL UFR12, genotype CTX-M-9, OXA-48) was greater than 256 µg/mL, the MIC ([5]; strain ECL UFR13, genotype TEM-1, SHV-12, CTX-M-9, OXA-48) was greater than 256 µg/mL and the MIC ([5]; strain ECL UFR14, genotype TEM-1, SHV-12, CTX-M-15, DHA-1, OXA-1, OXA-48) was greater than 256 µg/mL. It also gave an MIC ([5]; strain ECL UFR60, genotype TEM-1, CTX-M-15, KPC-2) greater than 256 µg/mL, an MIC ([5]; strain ECL UFR70, genotype TEM-1, CTX-M-15, CMY-2, OXA-1, Porin loss) greater than 256 µg/mL and an MIC ([5]; strain ECL UFR84, genotype TEM-1, AmpC, OXA-1) greater than 256 µg/mL. For the same compound, the MIC ([5]; strain ECL UFR85, genotype TEM-1, CTX-M-15, AmpC) was greater than 256 µg/mL, the MIC ([5]; strain ECL UFR194, genotype OXA-48) was 32 µg/mL and the MIC ([5]; strain ECL UFR195, genotype TEM-1, CTX-M-15, OXA-1, OXA-48) was greater than 256 µg/mL. For the same compound, the MIC ([5]; strain ECL UFR196, genotype TEM-1, CTX-M-15, OXA-1, OXA-48) was greater than 256 µg/mL, the MIC ([5]; strain ECL UFR197, genotype TEM-1, CTX-M-15, OXA-1, OXA-48) was greater than 256 µg/mL and the MIC ([5]; strain ECL UFR198, genotype TEM-1, SHV-12, CTX-M-15, DHA-1, OXA-1, OXA-48) was greater than 256 µg/mL. It also gave an MIC ([5]; strain ECL UFR200, genotype TEM-1, SHV-12, KPC-2) greater than 256 µg/mL, an MIC ([6]; strain SMA UFR30, genotype OXA-405) greater than 256 µg/mL and an MIC ([6]; strain SMA UFR134, genotype TEM-1, BES-1) greater than 256 µg/mL. It also gave an MIC ([6]; strain SMA UFR135, genotype TEM-1, KPC-2) greater than 256 µg/mL, an MIC ([6]; strain SMA UFR136, genotype TEM-1, SHV-12, KPC-2) greater than 256 µg/mL and an MIC ([6]; strain SMA UFR137, genotype SME-1) of 256 µg/mL. For the same compound, the MIC ([6]; strain SMA UFR138, genotype SME-1) was 256 µg/mL, the MIC ([6]; strain SMA UFR139, genotype SME-2) was greater than 256 µg/mL and the MIC ([6]; strain SMA UFR141, genotype OXA-48) was greater than 256 µg/mL. The MIC ([6]; strain SMA UFR142, genotype OXA-48) was greater than 256 µg/mL, the MIC ([6]; strain SMA UFR143, genotype CTX-M-15, OXA-1, OXA-48) was greater than 256 µg/mL and the MIC ([6]; strain SMA UFR238, genotype OXA-48) was greater than 256 µg/mL. The MIC ([6]; strain SMA UFR239, genotype ESAC) was 256 µg/mL.
For `COCC1=C(C(=O)O)N2C(=O)[C@@H](NC(=O)/C(=N\OC)c3csc(N)n3)[C@H]2SC1` [POD, Cefpodoxime], the MIC ([1]; Salmonella enterica, TYPHIMURIUM) was 4 µg/mL, the MIC ([2]; Providencia stuartii, strain PST UFR94, genotype CTX-M-14, read-out: MIC) was 32 µg/mL and the MIC ([2]; Providencia stuartii, strain PST UFR95, genotype TEM-24, read-out: MIC) was 16 µg/mL. It also gave an MIC ([2]; Providencia stuartii, strain PST UFR235, genotype VEB-1, read-out: MIC) of 128 µg/mL, an MIC ([3]; Providencia rettgeri, strain PRE UFR236, genotype TEM-1, OXA-48, read-out: MIC) of 64 µg/mL and an MIC ([4]; Klebsiella oxytoca, strain KOX UFR223, genotype SHV-11, OXA-48, read-out: MIC) of 0.5 µg/mL. For the same compound, the MIC ([5]; Enterobacter cloacae, strain ECL P99, genotype AmpC, read-out: MIC) was greater than 512 µg/mL, the MIC ([5]; Enterobacter cloacae, strain ECL UFR12, genotype CTX-M-9, OXA-48, read-out: MIC) was 128 µg/mL and the MIC ([5]; Enterobacter cloacae, strain ECL UFR194, genotype OXA-48, read-out: MIC) was 16 µg/mL. For the same compound, the MIC ([6]; Serratia marcescens, strain SMA UFR30, genotype OXA-405, read-out: MIC) was 32 µg/mL, the MIC ([6]; Serratia marcescens, strain SMA UFR137, genotype SME-1, read-out: MIC) was 1 µg/mL and the MIC ([6]; Serratia marcescens, strain SMA UFR138, genotype SME-1, read-out: MIC) was 2 µg/mL. It also gave an MIC ([6]; Serratia marcescens, strain SMA UFR139, genotype SME-2, read-out: MIC) of 8 µg/mL, an MIC ([6]; Serratia marcescens, strain SMA UFR141, genotype OXA-48, read-out: MIC) of 8 µg/mL and an MIC ([6]; Serratia marcescens, strain SMA UFR142, genotype OXA-48, read-out: MIC) of 8 µg/mL. The MIC ([6]; Serratia marcescens, strain SMA UFR238, genotype OXA-48, read-out: MIC) was 8 µg/mL and the MIC ([6]; Serratia marcescens, strain SMA UFR239, genotype ESAC, read-out: MIC) was 16 µg/mL.
